Measured values published in patent US20170037028A1 (BAYER PHARMA AKTIENGESELLSCHAFT, priority 2013, published 2017).
pIC50: −log10 of the molar value.

The compounds below were run against T1, GLUT1 (Homo sapiens, UniProt P11166) (assay: Indirect measurement of GLUT1 activity by quantification of intracellular ATP levels (glucose induced ATP increase)). Settings: DLD1 cells; 0.1 mM glucose, 1 μM Rotenone, 15 min; CellTiter-Glo ATP readout; IC50 values standardized to cytochalasin B IC50 values; read-out: IC50 regarding glucose induced ATP increase (GLUT1 inhibition).
T1 sequence (P11166 1-492): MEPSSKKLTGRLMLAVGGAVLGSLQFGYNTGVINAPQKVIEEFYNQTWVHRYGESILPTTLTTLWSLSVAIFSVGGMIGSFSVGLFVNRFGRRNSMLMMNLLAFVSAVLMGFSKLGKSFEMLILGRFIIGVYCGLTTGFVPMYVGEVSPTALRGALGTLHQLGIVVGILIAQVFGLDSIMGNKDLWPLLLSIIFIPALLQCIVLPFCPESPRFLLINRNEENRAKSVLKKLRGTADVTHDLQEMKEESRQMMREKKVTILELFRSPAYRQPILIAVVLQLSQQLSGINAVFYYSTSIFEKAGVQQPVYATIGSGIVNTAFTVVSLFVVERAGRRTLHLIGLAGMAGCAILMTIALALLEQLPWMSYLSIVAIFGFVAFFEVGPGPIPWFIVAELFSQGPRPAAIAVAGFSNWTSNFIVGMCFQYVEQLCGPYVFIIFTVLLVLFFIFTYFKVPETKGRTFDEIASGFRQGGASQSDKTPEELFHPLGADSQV
Type: cell-based
Design: endogenous in cells; host or cells: DLD1 or CHO-K1
In short: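 Intracellular ATP was measured by CellTiter-Glo luminescence as an indirect readout of transport: glucose-driven for GLUT1, fructose-driven for GLUT2. DLD1 or CHO-K1 cells were used alongside an oxidative phosphorylation inhibitor. Beforehand, cells were held overnight in glucose-free 1% FCS medium to deplete ATP.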

Structure (SMILES)	pIC50
Cc1c(NC(=O)c2cc(C(N)=O)nc3cc(F)ccc23)c(C(F)(F)F)nn1Cc1ccc(C#N)nc1 [Example 290, N^4-{1-[(6-cyanopyridin-3-yl)methyl]-5-methyl-3-(trifluoromethyl)-1H-pyrazol-4-yl}-7-fluoroquinoline-2,4-dicarboxamide]	7.50

Same assay, conditions: read-out: IC50 regarding glucose induced ATP increase (GLUT1 inhibition)

pIC50	Structure (SMILES)
8.64	Cc1nn(Cc2ccc(F)cc2)c(C)c1NC(=O)c1cc(C(F)(F)F)nc2cc(F)c(Br)cc12 [Example 124, 6-bromo-7-fluoro-N-[1-(4-fluorobenzyl)-3,5-dimethyl-1H-pyrazol-4-yl]-2-(trifluoromethyl)quinoline-4-carboxamide]
7.42	CNS(=O)(=O)c1cc(C(=O)Nc2c(C)nn(Cc3ccc(C#N)cc3)c2C)c2ccccc2n1 [Example 1575]
7.91	Cc1nn(Cc2ccc(F)cc2)c(C)c1NC(=O)c1cc(C(F)(F)F)nc2c(Br)cccc12 [Example 18, 8-bromo-N-[1-(4-fluorobenzyl)-3,5-dimethyl-1H-pyrazol-4-yl]-2-(trifluoromethyl)quinoline-4-carboxamide]
6.15	COc1cc(C(=O)Nc2c(C)nn(Cc3ccccn3)c2C)c2ccccc2n1 [Example 110, N-[3,5-dimethyl-1-(pyridin-2-ylmethyl)-1H-pyrazol-4-yl]-2-methoxyquinoline-4-carboxamide]
6.34	Cc1nn(Cc2ccc(F)cc2)c(C)c1NC(=O)c1cc(C(F)(F)F)nc2ccc(C#N)cc12 [Example 103, 6-cyano-N-[1-(4-fluorobenzyl)-3,5-dimethyl-1H-pyrazol-4-yl]-2-(trifluoromethyl)quinoline-4-carboxamide]
7.90	Cc1nn(Cc2ccc(F)cc2)c(C)c1NC(=O)c1cc(C2CC2)nc2ccccc12 [Example 19, 2-cyclopropyl-N-[1-(4-fluorobenzyl)-3,5-dimethyl-1H-pyrazol-4-yl]quinoline-4-carboxamide]
5.60	COc1cc(C(=O)Nc2c(C(=O)N(C)C)nn(Cc3ccc(F)cc3)c2C)c2ccccc2n1 [Example 1265]
7.25	CNC(=O)c1ccc(Cn2nc(C)c(NC(=O)c3cc(C(N)=O)nc4cc(F)ccc34)c2C)cc1 [Example 1425]
7.91	Cc1nn(Cc2ccc(C#N)cc2)c(C)c1NC(=O)c1cc(C(=O)N2CCC2)nc2cc(F)ccc12 [Example 1428]
5.82	Cc1nn(CC2CCNCC2)c(C)c1NC(=O)c1cc(C(N)=O)nc2ccccc12 [Example 406, N^4-[3,5-dimethyl-1-(piperidin-4-ylmethyl)-1H-pyrazol-4-yl]quinoline-2,4-dicarboxamide]
8.17	Cc1nn(Cc2ccccc2C#N)c(C)c1NC(=O)c1cc(C(N)=O)nc2ccc(F)cc12 [Example 221, N^4-[1-(2-cyanobenzyl)-3,5-dimethyl-1H-pyrazol-4-yl]-6-fluoroquinoline-2,4-dicarboxamide]
7.38	C=Cc1ccc(Cn2nc(C)c(NC(=O)c3cc(C)nc4ccc(C)cc34)c2C)cc1 [Example 1097]
8.55	Cc1nn(Cc2ccc(F)c(F)c2)c(C)c1NC(=O)c1cc(C(N)=O)nc2cc(F)ccc12 [Example 1470]
5.54	COc1cc(C(=O)Nc2c(C)nn(Cc3ccc(C(F)(F)F)cc3)c2C)c2ccccc2n1 [Example 1269]
7.80	Cc1nn(Cc2ccc(F)cc2)c(C)c1NC(=O)c1cc(C(F)(F)F)nc2cccc(F)c12 [Example 26, 5-fluoro-N-[1-(4-fluorobenzyl)-3,5-dimethyl-1H-pyrazol-4-yl]-2-(trifluoromethyl)quinoline-4-carboxamide]
5.81	Cc1nn(Cc2ccc(F)cc2)c(C)c1NC(=O)c1cc(C(F)(F)F)nc2ccc(NC(=O)C(N)=O)cc12 [Example 1242]
6.83	Cc1nn(Cc2cccc(C#N)n2)c(C)c1NC(=O)c1cc(C(N)=O)nc2ccccc12 [Example 1708]

The next lines start with the compound.

Structure (SMILES)	pIC50
Cc1nn(Cc2cc(F)cc(F)c2)c(C)c1NC(=O)c1cc(C(F)(F)F)nc2ccc(Br)cc12 [Example 1256]	5.69
Cc1c(NC(=O)c2cc(C(N)=O)nc3ccc(F)cc23)c(C(F)(F)F)nn1Cc1ccc(C#N)cc1 [Example 219, N^4-[1-(4-cyanobenzyl)-5-methyl-3-(trifluoromethyl)-1H-pyrazol-4-yl]-6-fluoroquinoline-2,4-dicarboxamide]	8.27
CCCCCN(CCO)C(=O)c1ccc(Cn2nc(C)c(NC(=O)c3cc(C(F)(F)F)nc4ccc(Br)cc34)c2C)cc1 [Example 1228]	6.02
Cc1cc(Cn2nc(C)c(NC(=O)c3cc(C(N)=O)nc4cc(F)ccc34)c2C)on1 [Example 1561]	7.98
Cc1nn(CC2CCN(S(=O)(=O)c3cccnc3)CC2)c(C)c1NC(=O)c1cc(C(N)=O)nc2ccccc12 [Example 1514]	6.31
Cc1nn(Cc2c(F)cccc2F)c(C)c1NC(=O)c1cc(C(F)(F)F)nc2ccc(Br)cc12 [Example 13, 6-bromo-N-[1-(2,6-difluorobenzyl)-3,5-dimethyl-1H-pyrazol-4-yl]-2-(trifluoromethyl)quinoline-4-carboxamide]	7.95
Cc1nn(C(C)c2ccccc2)c(C)c1NC(=O)c1cc(C(N)=O)nc2cc(F)c(Cl)cc12 (racemic) [Example 1363]	8.74
Cc1c(NC(=O)c2cc(C(N)=O)nc3ccccc23)c(C(F)(F)F)nn1Cc1ccncc1C#N [Example 288, N^4-{1-[(3-cyanopyridin-4-yl)methyl]-5-methyl-3-(trifluoromethyl)-1H-pyrazol-4-yl}quinoline-2,4-dicarboxamide]	7.40
Cc1nn(Cc2ccc(C(=O)NC(CO)CO)cn2)c(C)c1NC(=O)c1cc(C(F)(F)F)nc2ccc(Br)cc12 [Example 1230]	6.00
Cc1nn(CCN2CCCCC2)c(C)c1NC(=O)c1cc(C(F)(F)F)nc2ccc(Br)cc12 [Example 1220]	6.14
CC(=O)N1CCC(Cn2nc(C)c(NC(=O)c3cc(C(F)(F)F)nc4ccc(Br)cc34)c2C)CC1 [Example 1156]	6.83
Cc1c(NC(=O)c2cc(C(N)=O)nc3cc(F)ccc23)c(C(F)(F)F)nn1Cc1ccc(C(=O)N2CCC2)cc1 [Example 372, N^4-{1-[4-(azetidin-1-ylcarbonyl)benzyl]-5-methyl-3-(trifluoromethyl)-1H-pyrazol-4-yl}-7-fluoroquinoline-2,4-dicarboxamide]	7.70
Cc1ccc(CNC(=O)c2ccc(Cn3nc(C)c(NC(=O)c4cc(C(F)(F)F)nc5ccc(Br)cc45)c3C)cc2)cc1 [Example 1108]	7.28
Cc1nn(Cc2cccc(C#N)c2)c(C)c1NC(=O)c1cc(C(N)=O)nc2cc(F)c(Cl)cc12 [Example 1456]	8.82
Cc1cccc(Cn2nc(C)c(NC(=O)c3cc(C(N)=O)nc4cccc(F)c34)c2C)c1 [Example 1475]	8.08
Cc1nn(Cc2ccc(C(=O)NC[C@@H](O)CO)cc2)c(C)c1NC(=O)c1cc(C(F)(F)F)nc2ccc(Br)cc12 [Example 1152]	6.88
Cc1nn(Cc2ccccc2C#N)c(C)c1NC(=O)c1cc(C(N)=O)nc2cc(F)c(F)cc12 [Example 235, N^4-[1-(2-cyanobenzyl)-3,5-dimethyl-1H-pyrazol-4-yl]-6,7-difluoroquinoline-2,4-dicarboxamide]	7.96
Cc1nn(Cc2cccnc2)c(C)c1NC(=O)c1cc(C(F)(F)F)nc2cc(F)c(F)cc12 [Example 196, N-[3,5-dimethyl-1-(pyridin-3-ylmethyl)-1H-pyrazol-4-yl]-6,7-difluoro-2-(trifluoromethyl)quinoline-4-carboxamide]	6.54
Cc1cc(Cn2nc(C(F)(F)F)c(NC(=O)c3cc(C(N)=O)nc4ccccc34)c2C)no1 [Example 1538]	7.14
CC(=O)c1cccc(Cn2nc(C(F)(F)F)c(NC(=O)c3cc(C(N)=O)nc4cc(F)ccc34)c2C)c1 [Example 1619]	7.40
Cc1c(NC(=O)c2cc(C(N)=O)nc3cc(F)c(Cl)cc23)c(C(F)(F)F)nn1Cc1ccc(F)c(F)c1 [Example 1444]	7.94
COc1ccc(Cn2nc(C)c(NC(=O)c3cc(C(F)(F)F)nc4c(Cl)cc(Cl)cc34)c2C)cc1 [Example 8, 6,8-dichloro-N-[1-(4-methoxybenzyl)-3,5-dimethyl-1H-pyrazol-4-yl]-2-(trifluoromethyl)quinoline-4-carboxamide]	8.27
Cc1c(NC(=O)c2cc(C(N)=O)nc3cc(Cl)ccc23)c(C(F)(F)F)nn1Cc1ccc(C#N)cc1 [Example 246, 7-chloro-N^4-[1-(4-cyanobenzyl)-5-methyl-3-(trifluoromethyl)-1H-pyrazol-4-yl]quinoline-2,4-dicarboxamide]	8.59
CNC(=O)Cc1ccc(Cn2nc(C)c(NC(=O)c3cc(C(F)(F)F)nc4ccc(Br)cc34)c2C)cc1 [Example 153, 6-bromo-N-(3,5-dimethyl-1-{4-[2-(methylamino)-2-oxoethyl]benzyl}-1H-pyrazol-4-yl)-2-(trifluoromethyl)quinoline-4-carboxamide]	7.02
Cc1nn(Cc2ccc(C(=O)NCCNC(=O)C3CC3)cc2)c(C)c1NC(=O)c1cc(C(F)(F)F)nc2ccc(Br)cc12 [Example 1098]	7.38
